The source of these data is patent US6525042B1 (Daiichi Pharmaceutical Co., Ltd., priority 1997, dated 2003).

In assay [1] the target is T1, human FXa (Homo sapiens, UniProt P00742).
T1 construct: purchased Cosmobio-ERL HFXa-1011
As to the kind of experiment: FXa inhibitory action (IC50), end point method. The format is biochemical. To be noted: 37° C. for 15 minutes, read-out: FXa 50% inhibitory concentration. How it is done:
(§1) Measurement of FXa Inhibitory Action (IC50)
A sample solution (100 μl), 280 μl of a 100 mM tris −200 mM sodium chloride (pH 7.4) buffer and 100 μl of a 1 mM S2222 (Chromogenix Corp.) solution were mixed and heated at 37° C. To the resulting mixture, 20 μl of 0.625 U/ml human FXa (“Cosmobio-ERL HFXa-1011”, dissolved in and diluted with a measuring buffer) were added, followed by heating at 37° C. for 15 minutes. To the resulting mixture, 100 μl of 1M citric acid were added and then, the absorbance at 405 nm was measured. The mixture to which only the diluting solvent for the sample was added instead of the sample was used as a blank, while the mixture to which 1M citric acid was added prior to the addition of FXa was used as a control. The concentration of the sample (IC50) at which 50% of FXa activity was inhibited was determined and it was designated as an index of FXa inhibitory action.

Assay [2] relates to tissue thromboplastin-derived rat DIC model. As to the kind of experiment: Anti-thrombus effects in a tissue thromboplastin-derived rat DIC model. It counts as in vivo. Conditions: oral 30 mg/kg, tissue thromboplastin one hour after the sample. The procedure:
Testing Method of Anti-thrombus Effects in a Tissue Thromboplastin-derived Rat DIC Model
A rat was anesthetized with halothane. After the collection of the blood (for measurement of the number of platelets, anti-FXa activity and TAT) from its cervical vein by using 1/10 part by weight of 3.13% (w/v) sodium citrate, the sample was administered orally. At an appropriate time after the administration, the rat was intraperioneally anesthetized (1 mg/kg) with Nembutal (50 mg/ml pentobarbital sodium, Abott Laboratories), followed by intravenous drip of 0.2 U/ml of tissue thromboplastin (Thromboplastin C plus, Dade Diagnostics of P. R. Inc.,) from the femoral vein for one minute at a rate of 2.5 to 3.0 ml/kg/min. The blood was collected (for measuring the number of platelets and anti-FXa activity) from the cervical vein 10 minutes after the intravenous drip and the blood was collected (for measuring TAT) from the cervical vein 20 minutes after the blood collection. The number of platelets, anti-FXa activity in the plasma and TAT concentration of each blood sample were measured. The number of the platelets was measured by an automatic cytometer, while the anti-FXa activity in the plasma was measured in a similar manner to that described in Test 7.
For the measurement of TAT (Thrombin-anti Thrombin=complex), EnzygnostR TAT micro kit (Boering Verke) was employed.

Assay [3] addresses T2, human thrombin (Homo sapiens, UniProt P00734).
T2 construct: purchased Sigma Chemical
Briefly: Thrombin inhibitory action (IC50), reaction rate method. It counts as biochemical. Conditions: room temperature, read-out: thrombin 50% inhibitory concentration. The procedure: (§2) Measurement of Thrombin Inhibitory Action (IC50)
In a 96-well microtiter plate, 10 μl of a sample solution, 40 μl of a 100 mM tris −200 mM sodium chloride −0.2% BSA (pH: 7.4) buffer and 10 μl of 4 U/ml human thrombin (Sigma Chemical, dissolved in and diluted with a measuring buffer) were poured, followed by the addition of 40 μl of 500 μM S2266 (product of Chromogenix). An increase (mOD/min) in the absorbance at 405 nm was measured at room temperature. From the below-described equation, an inhibitory ratio % of each sample was determined. On a logarithmic probability paper, the final concentration of the sample and inhibitory ratio were plotted along the abscissa and the ordinate, respectively, whereby a 50% inhibitory concentration (IC50) was found.
(§3) Inhibitory ratio (%)=(1−OD of sample÷OD of control)×100

The target in the next assay is human Factor Xa (Homo sapiens, UniProt P00742). Briefly: Oral administration test: anti-FXa activity in the plasma. It counts as in vivo. To be noted: rat, 30 mg/kg, one hour after the administration. How it is done: (§4) Test of Oral Administration
Sequence of human Factor Xa (P00742 235-488 limits assumed): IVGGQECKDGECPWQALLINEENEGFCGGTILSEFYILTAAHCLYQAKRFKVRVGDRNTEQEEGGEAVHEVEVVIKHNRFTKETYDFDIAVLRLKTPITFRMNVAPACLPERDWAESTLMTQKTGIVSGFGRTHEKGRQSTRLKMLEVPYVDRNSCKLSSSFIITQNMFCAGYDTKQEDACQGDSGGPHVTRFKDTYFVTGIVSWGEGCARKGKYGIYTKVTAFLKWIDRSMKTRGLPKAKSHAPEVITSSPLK
Sequence of human Factor Xa (P00742 41-179 partner limits assumed): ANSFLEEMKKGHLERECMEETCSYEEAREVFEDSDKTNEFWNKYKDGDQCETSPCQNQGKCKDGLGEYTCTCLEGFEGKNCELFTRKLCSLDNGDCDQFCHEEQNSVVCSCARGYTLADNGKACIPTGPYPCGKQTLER
(§5) A sample was dissolved or suspended in a 0.5% (w/v) methyl cellulose solution and the resulting solution or suspension was orally administered (10 ml/kg) to a 8 to 11 week-old rat (Wistar male rat (Nippon SLC Co., Ltd.)) which had been fasted overnight. After administration of the sample, the blood to which 1/10 part by weight of 3.13% (w/v) sodium citrate had been added was collected from the cervical vein. The rat was awakened except during the blood collection. Feeding was re-started 6 hours after the blood collection. From each blood sample, the plasma was separated by centrifugal separation and anti-FXa activity in the blood and prothrombin time extending action were measured.
2-1) Measurement of Anti-FXa Activity in the Plasma
In a 96-well plate, 5 μl of the plasma was poured in portions, followed by the addition of 55 μl of a 8:1:2 mixture of 100 mM tris −200 mM sodium chloride −0.2% BSA (pH 7.4) buffer, water and 0.1 U/ml human Factor Xa solution (dissolved in and diluted with a measuring buffer) and 40 μl of 750 μM S-2222. After stirring for 10 seconds in a plate mixer, an increase (mOD/min) of the absorbance at 405 nm was measured at room temperature. The inhibitory ratio was calculated as follows:
An inhibitory ratio (%)=(1−OD of sample÷OD of control on average relative to blood-collecting time of sample)×100

Assay [4] relates to plasma. Briefly: Oral administration test: coagulation extending action (prothrombin time). The format is in vivo. Conditions: rat, 30 mg/kg, one hour after the administration. The procedure:
as §4, §5
2-2) Measurement of Coagulation Extending Action in Oral Administration (Measurement of Prothrombin Time)
To 20 μl of the plasma, 40 μl of cynplastin (Organon Teknika/USA) were added and the coagulation time was measured. The ratio of the prothrombin time after the administration of the sample relative to the prothrombin time before the administration of the sample was designated as an index of the coagulation extending action.

Assay [5] deals with T1, human FXa. Briefly: FXa inhibitory action (IC50), reaction rate method. The format is biochemical. Conditions: room temperature, read-out: FXa 50% inhibitory concentration. The procedure: as §1
In a 96-well microtiter plate, 10 μl of a sample solution, 40 μl of a 100 mM tris −200 mM sodium chloride −0.2% BSA (pH: 7.4) buffer and 10 μl of 0.05 U/ml human FXa (“Cosmobio-ERL HFXa-1011”, dissolved in and diluted with a measuring buffer) were poured in portions, followed by the addition of […] of S2222 (product of Chromogenix). An increase (mOD/min) in the absorbance at 405 nm was measured at room temperature. From the below-described equation, an inhibitory ratio % of each sample was determined. On a logarithmic probability paper, the final concentration of the sample and inhibitory ratio % were plotted along the abscissa and the ordinate, respectively, whereby a 50% inhibitory concentration (IC50) was determined.
as §3

Assay [6] deals with T2, human thrombin. Briefly: Thrombin inhibitory action (IC50), end point method. To be noted: 37° C. for 10 minutes, read-out: thrombin 50% inhibitory concentration. The format is biochemical. The procedure: as §2
A sample solution (100 μl), 280 μl of a 100 mM tris −200 mM sodium chloride (pH 7.4) buffer and 100 μl of 1 mM S2238 (Chromogenix) solution were mixed and heated at 37° C. To the resulting mixture, 20 μl of 1 U/ml human thrombin (Sigma Chemical, dissolved in and diluted with a measuring buffer) were added, followed by heating at 37° C. for 10 minutes. To the resulting mixture, 100 μl of 1M citric acid were added and then, the absorbance at 405 nm was measured. The mixture to which only the diluting solvent was added instead of the sample was used as a blank, while the mixture to which 1M citric acid was added prior to the addition of thrombin was used as a control. The sample concentration (IC50) at which 50% of thrombin activity was inhibited was found and it was designated as an index of thrombin inhibitory action.

For assay [7], the system named is Plasma. Briefly: Coagulation extending action (prothrombin time) in plasma. The format is biochemical. The procedure: Measurement of Coagulation Extending Action (Measurement of Prothrombin Time)
Plasma (20 μl) and 20 μl of a sample solution were mixed. To the resulting mixture, […] of cynplastin (product of Organon Teknika) were added and the coagulation time was measured. The concentration of the sample (CT2) at which the coagulation time of the plasma was increased twice was found and it was designated as an index of anticoagulant action.

For assay [8], the target named is T2, human thrombin. As to the kind of experiment: Measurement of Ki value against thrombin. The format is biochemical. To be noted: Dixon plot. How it is done: Measurement of Ki Value Against Thrombin
In a 96-well microtiter plate, 5 μl of a sample solution, 5 μl of purified water, 40 μl of a 100 mM tris −200 mM sodium chloride −0.2% BSA (pH: 7.4) buffer and 10 μl of 5 U/ml human thrombin (product of Sigma Chemical, dissolved in and diluted with a measuring buffer) were poured in portions, followed by the addition of 40 μl of S2226 (product of Chromogenix, final concentration: 50, 100, 200 and 400 μM). […] The median of six values available by solving simultaneous equations was designated as a Ki value.

Assay [9] deals with T1, human FXa. Briefly: Measurement of Ki value against FXa. The format is biochemical. To be noted: substrate S2222, Dixon plot. The procedure:
Measurement of Ki Value Against FXa
In a 96-well microtiter plate, 5 μl of a sample solution, 5 μl of purified water, 40 μl of a 100 mM tris −200 mM sodium chloride −0.2% BSA (pH: 7.4) buffer and 10 μl of 0.05 U/ml human FXa (product of Enzyme Research, dissolved in and diluted with a measuring buffer) were poured, followed by the addition of 40 μl of S2222 (product of Chromogenix, final concentration: 75, 150, 300 and 600 μM). […] The median of six values available by solving simultaneous equations was designated as a Ki value.

A value given as a limit tells only on which side of the number the result lay.

T1 sequence (P00742 235-488 limits assumed): as the sequence (P00742 235-488 limits assumed) above
T1 sequence (P00742 41-179 partner limits assumed): as the sequence (P00742 41-179 partner limits assumed) above

For `O=C(c1ccc(-c2cc[n+]([O-])cc2)cc1)N1CCN(S(=O)(=O)c2ccc3cc(Cl)ccc3c2)CC1` [Example 6, 4-[4-[[4-[(6-Chloronaphthalen-2-yl)sulfonyl]piperazin-1-yl]carbonyl]phenyl]pyridine N-oxide], on human FXa [1], the IC50 was found to be 125 nM.

For `CC1Cc2nc(C(=O)N3CCN(S(=O)(=O)c4ccc5cc(Cl)ccc5c4)CC3C(N)=O)sc2CN1.Cl` (stereo not shown) [Example 95, 2-Carbamoyl-4-[(6-chloronaphthalen-2-yl)sulfonyl]-1-[(6-methyl-4,5,6,7-tetrahydrothiazolo[5,4-c]pyridin-2-yl)carbonyl]piperazine hydrochloride], in assay [2], the “anti-FXa action in the plasma” value is “apparent anti-FXa action in the plasma was recognized”, the “decrease in the number of the platelets” value was “suppressed” and the “increase in the TAT concentration” value was “suppressed”.

Consider `O=C(c1ccc(-c2cccc[n+]2[O-])cc1)N1CCN(S(=O)(=O)c2ccc3cc(Cl)ccc3c2)CC1` [Example 19, 2-[4-[[4-[(6-Chloronaphthalen-2-yl)sulfonyl]piperazin-1-yl]carbonyl]phenyl]pyridine N-oxide], for which the IC50 turned out to be 1900 nM on human thrombin [3] and 72 nM at human FXa [1].

For the compound `Cl.O=C(C1CC=C(c2ccncc2)CC1)N1CCN(S(=O)(=O)c2ccc3cc(Cl)ccc3c2)CC1` (racemic) [Example 110, 1-[(6-Chloronaphthalen-2-yl)sulfonyl]-4-[[(1RS)-4-(pyridin-4-yl)-3-cyclohexene]carbonyl]piperazine hydrochloride], the “anti-FXa activity in the plasma” value on human Factor Xa amounted to 70%. Moreover, the “extension of the prothrombin time (ratio after/before administration)” value with plasma [4] was 1.18 times.

With “2-[[4-[(6-Chloronaphthalen-2-yl)sulfonyl]piperazin-1-yl]carbonyl]-6,6-dimethyl-4,5,6,7-tetrahydrothiazolo[5,4-c]pyridinium iodide [Example 92]”, the IC50 is 7.8 nM at human FXa [5] and ≥ 200000 nM at human thrombin [6]. In addition, the “CT2 (concentration at which the coagulation time of the plasma was increased twice)” value in the assay with Plasma [7] came out at 0.35 µM.

One may read the Ki as the equilibrium dissociation constant of an inhibitor or competing ligand from its target. Lower therefore signals a stronger hold on the target. In the case of `C[N+]1([O-])CCc2nc(C(=O)N3CCN(S(=O)(=O)c4ccc5cc(Cl)ccc5c4)CC3)sc2C1` (stereo not shown) [Example 93], the Ki was determined as 3300 nM on human thrombin [8] and 10.9 nM at human FXa [9].
